Reference: article PMC10974242, “Killing of Plasmodium Sporozoites by Basic Amphipathic α-Helical Fusion Peptides” (Microorganisms, 2024)
Values joined by “and” are separate entries in the source; they are usually repeats but may differ in a detail not shown here. Identical values can stand only once. No end group written: not given here. *: point of attachment. FITC = O=C1OC2(c3ccc(O)cc3Oc3cc(O)ccc32)c2ccc(NC(=S)*)cc21

How the values were obtained:
[1] = tested on: P. berghei (Pb) salivary gland sporozoites; type: cell-based, P. berghei ANKA; conditions: for killing of GFP-expressing Pb sporozoites (in words): 3-9 independent experiments
Experimental: (§1) To assess the cytotoxic effect of the different peptides on sporozoites, we performed an in vitro assay as previously described. Briefly, sporozoites were incubated at 37 °C for 45 min with different peptides in the presence of 10% fetal calf serum (FCS). Samples were next, incubated for 10 min with 5 µg/mL propidium iodide (PI, Invitrogen, WA, USA) on ice and either imaged in an inverted Axio Observer Z.1 microscope (Zeiss, Oberkochen, Germany) and analyzed using Fiji or diluted 10 times with cold PBS before acquisition on a CytoFLEX S flow cytometer (Beckman Coulter, Brea, CA, USA). For the Pf cytotoxic assay, a final concentration of 0.5 µM cytochalasin D (Sigma-Aldrich) was used in some conditions. Viability was defined as the percentage of GFP+PI- sporozoites to the sum of GFP+PI-, GFP+PI+, and GFP-PI+ sporozoites. Data were analyzed using the CytExpert 2.0 software (Beckman Coulter).
(§2) To evaluate the killing of plasmodial sporozoites by membrane-active molecules, we tested the activity of cationic amphipathic α-helical peptides listed in Figure 1 on P. berghei (Pb), P. yoelii (Py), and P. falciparum (Pf) salivary gland sporozoites in vitro. Quantification of sporozoite death was measured by flow cytometry based on the uptake of propidium iodide (PI), a live cell impermeant nucleic acid fluorescent dye, and/or by the loss of parasite fluorescence following 45 min incubation at 37 °C in PBS 10% fetal calf serum (FCS).

[2] = tested on: P. gallinaceum sporozoites; conditions: 250 µM; cited from earlier work
Experimental: Many natural antimicrobial peptides (AMPs), such as magainin, cecropin, and defensins, can kill oocysts from different plasmodial species when injected or over-expressed in the insect hemolymph. However, avian-infecting P. gallinaceum sporozoites are resistant to incubation with 250 µM of the AMPs metalnikowin, thanatin, drosocin, and metchnikowin. […] Yet, despite rendering mosquitoes susceptible to Gram-positive bacterial challenge, the k ...

Pb sporozoites = assay: Dynamic microscopy and gliding motility assay of sporozoites; type: cell-based, P. berghei ANKA
Experimental: To visualize the killing of the sporozoites by the peptide, Pb sporozoites expressing mCherry were incubated with 20 μM of RT39 and RT39-FITC. First, 5000 sporozoites were activated in 10% FCS/PBS on an 18-well slide (iBidi, Gräfelfing, Germany). After 5 min, the peptide was added with 1 μM of To-Pro 3 and the sporozoites were immediately recorded for 15–30 min using a spinning-disk confocal system (UltraView ERS, PerkinElmer, Shelton, CT, USA) controlled by Volocity (PerkinElmer), composed of 4 Diode Pumped Solid State Lasers, a Yokogawa Confocal Scanner Unit CSU22, a z-axis piezoelectric actuator, and a Hamamatsu Orca-Flash 4.0 camera mounted on a Axiovert 200 microscope (Zeiss). Time-lapses were analyzed using Fiji.
To assess gliding motility, 5000 sporozoites were resuspended in 10% FCS/PBS in a final volume of 10 µL. The resulting suspension was transferred to an 18-well slide (iBidi) and centrifuged at 400× g for 3 min at 4 °C. The slide was then allowed to equilibrate at 37 °C, 5% CO2 for 3 min in the incubation chamber (Incubation System S, Zeiss) of an inverted epifluorescence wide-field microscope (AxioObserver Z.1, Zeiss) equipped with a LED illumination system (Colibri2, Zeiss), a CCD camera (AxioCam MR, Zeiss), and controlled by the AxioVision software (version 4.8.2.0, Zeiss). After 3 min, a time-lapse movie at a rate of one image per second was recorded for 2 min to control for initial parasite motility. After the 2 min recording, 10 µL of PBS or 20 µM of RT39 were added on top, and the parasites were immediately imaged for 20 min. The average sporozoite velocity at different time points was determined using the MTrack2 plug-in from Fiji.
RT39 induced a fast killing of Pb sporozoites in comparison with anti-CSP antibody as measured by flow cytometry. While 20 µM of the cytotoxic peptide killed most parasites before 5 min of incubation, 10 µg/mL of cytotoxic antibody needed more than 20 min to eliminate the majority of sporozoites (Figure 3A). To better understand the way RT39 is acting on Pb sporozoites, we dynamically imaged the cytotoxic effect of the peptide on fluorescent sporozoites in the presence of To-Pro 3, a live-cell impermeant far-red fluorescent nucleic acid dye. Given its fast-killing kinetics, RT39 was added to a microscopy chamber containing PBS 10% FCS and sporozoites, which were immediately recorded for 20 min at 37 °C. In the presence of FCS, most sporozoites move in a circular way in a substrate-dependent manner. Sporozoite death was assessed by the incorporation of To-Pro 3 and/or by the loss of cytoplasmic fluorescence. Following the addition of RT39 to sporozoites, a lag phase of around 5 min was observed, probably corresponding to the diffusion and peptide binding to sporozoites, after which parasites started to die in quick succession (Figure 3B).

Pf oocysts = conditions: in vivo, at concentrations that start to be toxic to mosquitoes; cited from earlier work
[3] = tested on: Escherichia coli DH5α (Ec); assay: E. coli viability, CFU quantification after incubation with cecropin B; type: cell-based; conditions: 2 µM cecropin B, 10 min, 37 °C, 10% FCS/PBS, CFU normalised to control; 3-4 independent experiments
Experimental: Escherichia coli DH5α (Ec) were grown at 37 °C under agitation in LB medium at an OD620 of approximately 0.35 (corresponding to 10^8 CFU/mL). After centrifugation and washing with PBS, the equivalent of 10^7 colony-forming units (CFUs)/mL were incubated at 37 °C for 10 min with or without Cecropin B (Sigma-Aldrich) in 10%FCS/PBS at concentrations ranging from 2 to 100 μM. The suspensions of bacteria were diluted 1000× in PBS and 50 µL were spread on LB-agar plates for CFU quantification. Viability was assessed by normalizing the number of CFU to the control group. A sample of E. coli heated at 70 °C for 10 min was used as a death control.
Cecropin B is a prototypical antimicrobial peptide (AMP, Figure 1) discovered in the hemolymph of the Cecropia moth. […] Since our sporozoite killing assay contains 10% FCS, which can inhibit the antimicrobial activity of several AMPs, we first tested the antimicrobial activity of cecropin B in the presence of 10% FCS.

[4] = tested on: P. yoelii (Py) salivary gland sporozoites; assay: Sporozoite cytotoxicity assay (PI uptake / loss of fluorescence); type: cell-based, P. yoelii 17XNL; conditions: 100 µM, 45 min incubation, 10% FCS/PBS; 3-4 independent experiments
Experimental: as §1, with “Viability was defined as the percentage of GFP+PI- sporozoites to the sum of GFP+PI-, GFP+PI+, and GFP-PI+ sporozoites.” left out
as §2

P. cynomolgi oocysts = conditions: in vivo, at concentrations that start to be toxic to mosquitoes; cited from earlier work
P. knowlesi oocysts = conditions: in vivo, at concentrations that start to be toxic to mosquitoes; cited from earlier work
[5] = tested on: P. berghei (Pb) salivary gland sporozoites; type: cell-based, P. berghei ANKA; conditions: 20 µM peptide, 37 °C, flow cytometry, n = 2
[6] = tested on: P. falciparum (Pf) salivary gland sporozoites; assay: Sporozoite cytotoxicity assay (PI uptake), with or without cytochalasin D; type: cell-based; conditions: 45 min, 37 °C; for killing of Pf sporozoites (in words): 20 µM peptide, PBS 10% FCS
Experimental: as §1, §2

cancer cells = conditions: cited from earlier work
Source text: (§3) We next tested the killing activity of a series of cationic amphipathic peptides consisting of penetratin (Figure 1, RK16), a cell-penetrating peptide (CPP) derived from the Drosophila melanogaster homeotic protein antennapedia a-helix 3 [25], fused with peptides derived from the a-helix 18 of the antiapoptosis clone 11 (AAC11) also known as Apoptosis Inhibitor 5 protein [26] (Figure 1, RL37, RT39, and RT53).

[7] = tested on: CD4+ T cells susceptible to HIV infection; conditions: cited from earlier work
Source text: as §3

human cells = conditions: cited from earlier work
Source text: Conversely, RT53, which combines the sequences of two basic amphipathic helical peptides (Figure 1B), one capable of translocating into cells and the other containing a heptad leucine repeat domain, which acts as a protein–protein interaction domain [32, 39], was able to kill Pb and Pf sporozoites.

[8] = 20 µM peptide, 45 min, 37 °C, 10% FCS/PBS, flow cytometry

For “RQIKIWFQNRRMKWKKLQYFAAGLQVYIRQLRLALQGGKT [RT39M]”, the “Pb sporozoite death compared with RT39” value ([1]; 2, 10, 40, 80 μM, 45 min, 37 °C, flow cytometry, n = 3) was “strongly decreased”.
For drosocin, the “susceptibility of P. gallinaceum sporozoites to incubation” value [2] is given as “resistant”.
In the case of “{FITC}-RQIKIWFQNRRMKWKKLQYFARGLQVYIRQLRLALQGGKT [RT39-FITC, FITC-labeled RT39]”, the “Ratio MFI SPZ/Bk of live parasites” value (Pb sporozoites; 20 µM RT39-FITC in solution, spinning-disk microscopy, 1 μM To-Pro 3, 10% FCS/PBS) is reported as ~ 1 and the “site of membrane permeabilization on the sporozoite body” value (Pb sporozoites; 20 μM RT39-FITC, 1 μM To-Pro 3, n = 34 sporozoites from 2 independent experiments) is reported as “frequently occurred at the posterior part of the sporozoite body”.
In the case of “cecropin B: cationic amphipathic antimicrobial insect peptide from Hyalophora cecropia, purchased from Sigma-Aldrich (KWKVFKKIEKMGRNIRNGIVKAGPAIAVLGEAKAL; ends and bridges not checked; UniProt P01508 27-61, looked up)”, the “development of Pf oocysts” value (Pf oocysts) is listed as “inhibit the development”, the “killing of E. coli” value [3] is listed as “efficiently kill” and the “killing of Py sporozoites” value [4] is listed as “did not significantly kill”. The “development of P. cynomolgi oocysts” value (P. cynomolgi oocysts) was “inhibit the development”, the “killing of Pb sporozoites” value ([1]; 100 µM, 45 min incubation, 10% FCS/PBS, 3-4 independent experiments) was “did not significantly kill” and the “development of P. knowlesi oocysts” value (P. knowlesi oocysts) was “inhibit the development”.
For “RQIKIWFQNRRMKWKKKDFKIRLQYFARGLQVYIRQL [RL37, penetratin fused with a peptide derived from the a-helix 18 of AAC11]”, the “killing of GFP-expressing Pb sporozoites (in words)” value [1, 8] was “did not significantly kill”.
In the case of “RQIKIWFQNRRMKWKKLQYFARGLQVYIRQLRLALQGGKT [RT39, penetratin fused with shorter AAC11 a-helix 18 peptide]”, the “incubation time at which most Pb sporozoites are killed” value [5] is reported as < 5 min and 5 min, the “lethality to Pf sporozoites compared with cytotoxic anti-CSP antibody” value ([6]; 20 µM peptide vs cytotoxic anti-CSP antibody) is reported as “as lethal as or more than” and the “killing of Pf sporozoites (in words)” value [6] is reported as “stronger killing activity than RT53”. For the same substance, the “time of sudden stop in motility with To-Pro 3 entry and mCherry leakage” value (Pb sporozoites; 20 µM RT39, exemplified dying sporozoite) was ~ 450 s, the “effect on sporozoite motility (speed) before permeabilization” value (Pb sporozoites; 20 µM RT39, two-minute analysis of speed at end of lag phase or beginning of death plateau, 2-3 independent experiments) was “did not significantly impact sporozoite motility” and the “lag phase before parasites start to die” value (Pb sporozoites; 20 µM RT39 added to sporozoites in PBS 10% FCS, 37 °C, recorded 20 min, microscopy) was “around 5 min”. The “lethality to Pb sporozoites compared with cytotoxic anti-CSP antibody” value ([1]; 20 µM peptide vs 10 µg/mL anti-PbCSP (3D11), 45 min, 37 °C) was “as lethal as or more than”, the “cell death of cancer cells” value (cancer cells) was “elicit the cell death” and the “cell death of CD4+ T cells susceptible to HIV infection” value [7] was “elicit the cell death”.
In the case of thanatin, the “susceptibility of P. gallinaceum sporozoites to incubation” value [2] is listed as “resistant”.
In the case of “RQIKIWFQNRRMKWKK [RK16, cell-penetrating peptide derived from the Drosophila melanogaster homeotic protein antennapedia a-helix 3, reference compound]”, the “killing of GFP-expressing Pb sporozoites (in words)” value [1, 8] is reported as “did not significantly kill”.
In the case of “RQIKIWFQNRRMKWKKAKLNAEKLKDFKIRLQYFARGLQVYIRQLRLALQGKT [RT53]”, the “killing of Pf sporozoites (in words)” value [6] is reported as “able to kill”, the Pb sporozoites killed [1, 8] is reported as “around 50%” and the “killing of GFP-expressing Pb sporozoites (in words)” value [1, 8] is reported as “able to kill”. For the same substance, the “incubation time at which membrane permeabilization plateaus” value (human cells) was 60 min, the “membrane permeabilization activity compared with RT39” value (human cells) was “equivalent or higher” and the “cell death of cancer cells” value (cancer cells) was “elicit the cell death”. For the same substance, the “cell death of CD4+ T cells susceptible to HIV infection” value [7] was “elicit the cell death”.
For metchnikowin, the “susceptibility of P. gallinaceum sporozoites to incubation” value [2] is given as “resistant”.
